Laboratory results as given in the NIST ThermoML archive (doi:10.1016/j.jct.2006.07.018).

Assay: molar heat capacity at constant pressure; mn = molality of the nth substance listed, in mol/kg
Conditions: 350 kPa, Liquid, high-precision DSC

CSCC[C@H](N)C(=O)O [L-methionine] + O
molar heat capacity at constant pressure [J/K/mol]
Conditions | m1 = 0.0125 | m1 = 0.025 | m1 = 0.05 | m1 = 0.0997 | m1 = 0.1501 | m1 = 0.1929
278.15 K | 75.75 | 75.8 | 75.86 | 76.01 | 76.17 | 76.3
283.15 K | 75.58 | 75.64 | 75.71 | 75.87 | 76.04 | 76.19
288.15 K | 75.47 | 75.53 | 75.6 | 75.78 | 75.96 | 76.12
293.15 K | 75.39 | 75.46 | 75.53 | 75.72 | 75.92 | 76.08
298.15 K | 75.34 | 75.41 | 75.49 | 75.69 | 75.89 | 76.06
303.15 K | 75.31 | 75.38 | 75.46 | 75.67 | 75.88 | 76.05
308.15 K | 75.3 | 75.37 | 75.45 | 75.66 | 75.88 | 76.05
313.15 K | 75.3 | 75.37 | 75.46 | 75.67 | 75.9 | 76.06
318.15 K | 75.31 | 75.38 | 75.47 | 75.68 | 75.92 | 76.09
323.15 K | 75.33 | 75.4 | 75.5 | 75.71 | 75.95 | 76.12
328.15 K | 75.37 | 75.44 | 75.53 | 75.75 | 75.99 | 76.16
333.15 K | 75.41 | 75.48 | 75.57 | 75.79 | 76.03 | 76.21
338.15 K | 75.45 | 75.53 | 75.62 | 75.84 | 76.08 | 76.26
343.15 K | 75.51 | 75.59 | 75.68 | 75.9 | 76.13 | 76.32
348.15 K | 75.58 | 75.65 | 75.75 | 75.96 | 76.2 | 76.38
353.15 K | 75.65 | 75.72 | 75.82 | 76.03 | 76.27 | 76.46
358.15 K | 75.73 | 75.8 | 75.9 | 76.11 | 76.35 | 76.54
363.15 K | 75.82 | 75.88 | 75.98 | 76.2 | 76.43 | 76.62
368.15 K | 75.91 | 75.98 | 76.08 | 76.29 | 76.53 | 76.71
373.15 K | 76.01 | 76.08 | 76.18 | 76.39 | 76.63 | 76.81
378.15 K | 76.13 | 76.19 | 76.29 | 76.5 | 76.74 | 76.92
383.15 K | 76.24 | 76.31 | 76.41 | 76.62 | 76.85 | 77.03
388.15 K | 76.38 | 76.45 | 76.54 | 76.74 | 76.98 | 77.15
393.15 K | 76.52 | 76.6 | 76.68 | 76.88 | 77.11 | 77.28
